# Source: patent publication US4950466A, “Reduction of the severity of 3'-azido-3'-deoxythymidine-induced anemia using a combination of benzylacyclouridine and dipyridamole” (priority 1988, dated 1990)
# Tests used:
# [1] = Blood counts (hemoglobin, hematocrit, white blood cells) in mice receiving AZT, BAU and/or DPR; pooled blood, Coulter Counter; type: in vivo, Female Balb/c mice; set-up: Hb (hemoglobin) / Hct (hematocrit): unit not given here
# Method: For oral administration, BAU was dissolved in water to achieve a final concentration of 0.3 mg/mL. For intraperitoneal administration, BAU was dissolved in dimethylsulfoxide (DMSO) to achieve final concentrations of 60, 100, or 120 mg/mL.
# The solution was centrifuged at 15,000 rpm for 20 minutes.
# (§1) Female Balb/c mice, 6-12 weeks old, were purchased from the Animal Care Facility of the Roger Williams Cancer Center. The animals were randomly divided into eight groups. Six of the treatment protocols were performed in duplicate. Each group contained either eight or nine animals. The animals were weighed once weekly. Food and water was available ad libitum. Blood samples were obtained from the tail vein. The first blood sample was obtained on Day 0 and subsequent samples were obtained on Days 19, 27, 34 and 44, 48, 54 and 68 after the initiation of drug treatment. With each sampling, approximately 100 ul of blood was removed from each animal. The blood obtained from the animals in each group was pooled and analyzed by Coulter Counter. On each sample, hemoglobin, hematocrit, and white blood cell count were determined. The mean red cell volume was calculated. The Treatment Groups were as follows:
# DMSO was given ip, 0.O1 mL/5 grams body weight, once weekly.
# Group 4--BAU 240 mg/kg, ip, once weekly.
# This corresponds to a daily administered dose of 43 mg/kg.
# The concentration was 0.69 mg/ml which corresponds to an administered dose of 100 mg/kg/day.
# [2] = Weekly body weight of treated mice; type: in vivo, Female Balb/c mice; settings: measured each week
# Method: as §1
# Body weights of the animals in the treatment groups were measured each week.
# [3] = system: granulocyte macrophage colony forming cells; settings: in vitro; cited from earlier work
# [4] = system: erythroid burst-forming cells; settings: in vitro; cited from earlier work
# [5] = system: human immunodifficiency virus reverse transcriptase; settings: cited from earlier work
# [6] = Oral bioavailability of BAU; settings: in vivo, 43 mg/kg, drinking water, read-out: bioavailability of BAU administered orally
# Method: Group 7--AZT administered in the drinking water (1 mg/mL) and BAU administered in the same container of drinking water (0.3 mg/mL). This corresponds to a daily administered dose of 43 mg/kg. The bioavailability of BAU administered orally was 80%. Therefore, the bioavailable dose of BAU administered to this group was 240 mg/kg/week.
# uridine phosphorylase = settings: cited from earlier work
# [7] = system: human bone marrow progenitor (HBMP) cells; settings: in vitro; cited from earlier work
# [8] = human, in vivo; cited from earlier work
# [9] = Day 0, AZT 1 mg/mL and/or DPR 0.69 mg/mL in drinking water, no BAU (Groups 3, 8, 9)
# [10] = Day 19, AZT 1 mg/mL and/or DPR 0.69 mg/mL in drinking water, no BAU (Groups 3, 8, 9)
# [11] = Day 27, AZT 1 mg/mL and/or DPR 0.69 mg/mL in drinking water, no BAU (Groups 3, 8, 9)
# [12] = Day 34, AZT 1 mg/mL and/or DPR 0.69 mg/mL in drinking water, no BAU (Groups 3, 8, 9)
# [13] = Day 44, DPR 0.69 mg/mL with or without AZT 1 mg/mL in drinking water (Groups 8, 9)
# [14] = Day 54, DPR 0.69 mg/mL with or without AZT 1 mg/mL in drinking water (Groups 8, 9)
# [15] = Day 68, DPR 0.69 mg/mL with or without AZT 1 mg/mL in drinking water (Groups 8, 9)
# [16] = Day 0, AZT 1 mg/mL in drinking water (145 mg/kg/day) + DMSO ip once weekly (Group 2)
# [17] = Day 19, AZT 1 mg/mL in drinking water (145 mg/kg/day) + DMSO ip once weekly (Group 2)
# [18] = Day 27, AZT 1 mg/mL in drinking water (145 mg/kg/day) + DMSO ip once weekly (Group 2)
# [19] = Day 34, AZT 1 mg/mL in drinking water (145 mg/kg/day) + DMSO ip once weekly (Group 2)
# [20] = Day 48, AZT 1 mg/mL in drinking water (145 mg/kg/day) + DMSO ip once weekly (Group 2)
# [21] = Day 48, AZT 1 mg/mL in drinking water (Group 3)
# [22] = Day 0, BAU 240 mg/kg ip once weekly, without (Group 4) or with (Group 5) AZT 1 mg/mL in drinking water
# [23] = Day 19, BAU 240 mg/kg ip once weekly, without (Group 4) or with (Group 5) AZT 1 mg/mL in drinking water
# [24] = Day 27, BAU 240 mg/kg ip once weekly, without (Group 4) or with (Group 5) AZT 1 mg/mL in drinking water
# [25] = Day 34, BAU 240 mg/kg ip once weekly, without (Group 4) or with (Group 5) AZT 1 mg/mL in drinking water
# [26] = Day 48, BAU 240 mg/kg ip once weekly, without (Group 4) or with (Group 5) AZT 1 mg/mL in drinking water
smiles,measurement,setting,value
"OCCN(CCO)c1nc(N2CCCCC2)c2nc(N(CCO)CCO)nc(N3CCCCC3)c2n1 [DPR, 2,2',2""2'""-(4,8-dipiperidinopyimidol[5,4-d]pyrimidene-2,6-diyldinitrilo) tetraethanol]",Hb (hemoglobin),[1]; [9],16.5
same,Hct (hematocrit),[1]; [9],48.0
same,WBC (white blood cell count),[1]; [9],5.9
same,Hb (hemoglobin),[1]; [10],14.3
same,Hct (hematocrit),[1]; [10],49
same,WBC (white blood cell count),[1]; [10],11.1
same,Hb (hemoglobin),[1]; [11],15.5
same,Hct (hematocrit),[1]; [11],45
same,WBC (white blood cell count),[1]; [11],10
same,Hb (hemoglobin),[1]; [12],14.8
same,Hct (hematocrit),[1]; [12],45
same,WBC (white blood cell count),[1]; [12],9.4
same,Hb (hemoglobin),[1]; [13],14.6
same,Hct (hematocrit),[1]; [13],45
same,WBC (white blood cell count),[1]; [13],9.1
same,Hb (hemoglobin),[1]; [14],15.4
same,Hct (hematocrit),[1]; [14],46
same,WBC (white blood cell count),[1]; [14],7.6
same,Hb (hemoglobin),[1]; [15],15.7
same,Hct (hematocrit),[1]; [15],45
same,WBC (white blood cell count),[1]; [15],9.3
"Cc1cn([C@H]2C[C@H](N=[N+]=[N-])[C@@H](CO)O2)c(=O)[nH]c1=O [AZT, 3'-Azido-3'-deoxythymidine]",body weight over time,[2],tended to lose weight as their anemia increased over time
same,inhibition of granulocyte macrophage colony forming cells,[3],consistently inhibit granulocyte macrophage colony forming cells and erythroid burst-forming cells in dose-dependent fashion
same,Hb (hemoglobin),[1]; [9],17.3
same,Hct (hematocrit),[1]; [9],43.0
same,WBC (white blood cell count),[1]; [9],8.4
same,Hb (hemoglobin),[1]; [16],17.3
same,Hct (hematocrit),[1]; [16],49.0
same,WBC (white blood cell count),[1]; [16],10.1
same,Hb (hemoglobin),[1]; [10],13.7
same,Hct (hematocrit),[1]; [10],43.0
same,Hb (hemoglobin),[1]; [17],12.8
same,Hct (hematocrit),[1]; [17],36.0
same,WBC (white blood cell count),[1]; [17],21.2
same,Hb (hemoglobin),[1]; [11],13.6
same,Hct (hematocrit),[1]; [11],43
same,WBC (white blood cell count),[1]; [11],13.6
same,Hb (hemoglobin),[1]; [18],13
same,Hct (hematocrit),[1]; [18],40
same,WBC (white blood cell count),[1]; [18],11.6
same,Hb (hemoglobin),[1]; [12],13.9
same,Hct (hematocrit),[1]; [12],42
same,WBC (white blood cell count),[1]; [12],13.3
same,Hb (hemoglobin),[1]; [19],11.6
same,Hct (hematocrit),[1]; [19],35
same,WBC (white blood cell count),[1]; [19],11.5
same,Hb (hemoglobin),[1]; [20],11.0
same,Hct (hematocrit),[1]; [20],33
same,WBC (white blood cell count),[1]; [20],5.0
same,Hb (hemoglobin),[1]; [21],13.2
same,Hct (hematocrit),[1]; [21],34
same,WBC (white blood cell count),[1]; [21],5.6
same,nature of anemia produced in mice,[1]; mice,typical of AZT induced anemia in humans
same,inhibition of erythroid burst-forming cells,[4],consistently inhibit granulocyte macrophage colony forming cells and erythroid burst-forming cells in dose-dependent fashion
same,inhibition of HIV reverse transcriptase,[5],inhibits the human immunodifficiency virus reverse transcriptase
"O=c1[nH]c(=O)n(COCCO)cc1Cc1ccccc1 [BAU, 5-benzylacyclouridine]",bioavailability,[6],80%
same,Hb (hemoglobin),[1]; [22],18.3
same,Hct (hematocrit),[1]; [22],52.0
same,WBC (white blood cell count),[1]; [22],8.8
same,Hb (hemoglobin),[1]; [23],17.3
same,Hct (hematocrit),[1]; [23],50.0
same,WBC (white blood cell count),[1]; [23],10.8
same,Hb (hemoglobin),[1]; [24],16.2
same,Hct (hematocrit),[1]; [24],51
same,WBC (white blood cell count),[1]; [24],6.6
same,Hb (hemoglobin),[1]; [25],17.2
same,Hct (hematocrit),[1]; [25],50
same,WBC (white blood cell count),[1]; [25],7.9
same,Hb (hemoglobin),[1]; [26],16.6
same,Hct (hematocrit),[1]; [26],49
same,WBC (white blood cell count),[1]; [26],6.4
same,inhibition of cleavage of 5-fluoro-2'-deoxyuridine,uridine phosphorylase,inhibits the cleavage of the antineoplastic 5-fluoro-2'-deoxyuridine
same,inhibition of uridine phosphorylase,uridine phosphorylase; cleavage of uridine to uracil,inhibitor of the enzyme uridine phosphorylase
Nc1ccn([C@@H]2O[C@H](CO)[C@@H](O)[C@H]2O)c(=O)n1 [cytidine],reversal of toxic effect of AZT in HBMP cells,[7],could reverse the toxic effect of AZT in HBMP cells
O=c1ccn([C@@H]2O[C@H](CO)[C@@H](O)[C@H]2O)c(=O)[nH]1 [uridine],reversal of toxic effect of AZT in HBMP cells,[7],could reverse the toxic effect of AZT in HBMP cells
same,body temperature,[8],rapid and potentially dangerous rises in body temperature
same,elimination from the plasma,[8],rapidly eliminated from the plasma
